The values that follow come from ChEMBL document CHEMBL5108079, “Therapeutic Activity of the Lansoprazole Metabolite 5-Hydroxy Lansoprazole Sulfide in Triple-Negative Breast Cancer by Inhibiting the Enoyl Reductase of Fatty Acid Synthase” (J Med Chem, 2022).

Active and inactive are the calls of the source. The rule behind the calls is not given here.

For data set [1], the system named is MDA-MB-231. The data set can be described thus: Induction of DNA damage in human MDA-MB-231 cells assessed as increase in gamma-H2AX level measured after 72 hrs by Western blot analysis. The note with it: dose 2.5-10 µM, DDE = dose-dependent effect. The class given is functional, cell-based. Background: In western blotting, separated proteins are transferred to a membrane and probed.

Data set [2] has as its system MDA-MB-468. Description: Inhibition of DNA repair activity in human MDA-MB-468 cells assessed as inhibition of NHEJ activity measured every 12 hrs for 72 hrs by luciferase based host cell reactivation assay. The format is functional.
Data set [3] deals with MDA-MB-468. The data set can be described thus: Induction of DNA damage in human MDA-MB-468 cells nucleus assessed as increase in gamma-H2AX punctate staining at 20 uM by DAPI staining based confocal microscopic imaging analysis. The class given is functional, cell-based.
In data set [4] the test system is MDA-MB-468. Description: Induction of DNA damage in human MDA-MB-468 cells assessed as inhibition of PARP-1 expression incubated for 72 hrs by Western blot analysis. The class given is functional, cell-based. The settings on record: dose 2.5-10 µM, DDE = dose-dependent effect.
Data set [5] can be described thus: Induction of DNA damage in human KTB34 cells assessed as increase in gamma-H2AX level at IC50 concentration by Western blot analysis. The format is toxicity, cell-based.
For data set [6], the target named is T1, Fatty acid synthase (Homo sapiens, UniProt P49327). Description: Inhibition of human FASN enoyl reductase activity using crotonyl CoA as substrate assessed as inhibition of substrate […] measured every 1 min for 10 mins in the presence of NADPH by fluorescence based assay.
Target sequence in this assay (P49327 whole entry): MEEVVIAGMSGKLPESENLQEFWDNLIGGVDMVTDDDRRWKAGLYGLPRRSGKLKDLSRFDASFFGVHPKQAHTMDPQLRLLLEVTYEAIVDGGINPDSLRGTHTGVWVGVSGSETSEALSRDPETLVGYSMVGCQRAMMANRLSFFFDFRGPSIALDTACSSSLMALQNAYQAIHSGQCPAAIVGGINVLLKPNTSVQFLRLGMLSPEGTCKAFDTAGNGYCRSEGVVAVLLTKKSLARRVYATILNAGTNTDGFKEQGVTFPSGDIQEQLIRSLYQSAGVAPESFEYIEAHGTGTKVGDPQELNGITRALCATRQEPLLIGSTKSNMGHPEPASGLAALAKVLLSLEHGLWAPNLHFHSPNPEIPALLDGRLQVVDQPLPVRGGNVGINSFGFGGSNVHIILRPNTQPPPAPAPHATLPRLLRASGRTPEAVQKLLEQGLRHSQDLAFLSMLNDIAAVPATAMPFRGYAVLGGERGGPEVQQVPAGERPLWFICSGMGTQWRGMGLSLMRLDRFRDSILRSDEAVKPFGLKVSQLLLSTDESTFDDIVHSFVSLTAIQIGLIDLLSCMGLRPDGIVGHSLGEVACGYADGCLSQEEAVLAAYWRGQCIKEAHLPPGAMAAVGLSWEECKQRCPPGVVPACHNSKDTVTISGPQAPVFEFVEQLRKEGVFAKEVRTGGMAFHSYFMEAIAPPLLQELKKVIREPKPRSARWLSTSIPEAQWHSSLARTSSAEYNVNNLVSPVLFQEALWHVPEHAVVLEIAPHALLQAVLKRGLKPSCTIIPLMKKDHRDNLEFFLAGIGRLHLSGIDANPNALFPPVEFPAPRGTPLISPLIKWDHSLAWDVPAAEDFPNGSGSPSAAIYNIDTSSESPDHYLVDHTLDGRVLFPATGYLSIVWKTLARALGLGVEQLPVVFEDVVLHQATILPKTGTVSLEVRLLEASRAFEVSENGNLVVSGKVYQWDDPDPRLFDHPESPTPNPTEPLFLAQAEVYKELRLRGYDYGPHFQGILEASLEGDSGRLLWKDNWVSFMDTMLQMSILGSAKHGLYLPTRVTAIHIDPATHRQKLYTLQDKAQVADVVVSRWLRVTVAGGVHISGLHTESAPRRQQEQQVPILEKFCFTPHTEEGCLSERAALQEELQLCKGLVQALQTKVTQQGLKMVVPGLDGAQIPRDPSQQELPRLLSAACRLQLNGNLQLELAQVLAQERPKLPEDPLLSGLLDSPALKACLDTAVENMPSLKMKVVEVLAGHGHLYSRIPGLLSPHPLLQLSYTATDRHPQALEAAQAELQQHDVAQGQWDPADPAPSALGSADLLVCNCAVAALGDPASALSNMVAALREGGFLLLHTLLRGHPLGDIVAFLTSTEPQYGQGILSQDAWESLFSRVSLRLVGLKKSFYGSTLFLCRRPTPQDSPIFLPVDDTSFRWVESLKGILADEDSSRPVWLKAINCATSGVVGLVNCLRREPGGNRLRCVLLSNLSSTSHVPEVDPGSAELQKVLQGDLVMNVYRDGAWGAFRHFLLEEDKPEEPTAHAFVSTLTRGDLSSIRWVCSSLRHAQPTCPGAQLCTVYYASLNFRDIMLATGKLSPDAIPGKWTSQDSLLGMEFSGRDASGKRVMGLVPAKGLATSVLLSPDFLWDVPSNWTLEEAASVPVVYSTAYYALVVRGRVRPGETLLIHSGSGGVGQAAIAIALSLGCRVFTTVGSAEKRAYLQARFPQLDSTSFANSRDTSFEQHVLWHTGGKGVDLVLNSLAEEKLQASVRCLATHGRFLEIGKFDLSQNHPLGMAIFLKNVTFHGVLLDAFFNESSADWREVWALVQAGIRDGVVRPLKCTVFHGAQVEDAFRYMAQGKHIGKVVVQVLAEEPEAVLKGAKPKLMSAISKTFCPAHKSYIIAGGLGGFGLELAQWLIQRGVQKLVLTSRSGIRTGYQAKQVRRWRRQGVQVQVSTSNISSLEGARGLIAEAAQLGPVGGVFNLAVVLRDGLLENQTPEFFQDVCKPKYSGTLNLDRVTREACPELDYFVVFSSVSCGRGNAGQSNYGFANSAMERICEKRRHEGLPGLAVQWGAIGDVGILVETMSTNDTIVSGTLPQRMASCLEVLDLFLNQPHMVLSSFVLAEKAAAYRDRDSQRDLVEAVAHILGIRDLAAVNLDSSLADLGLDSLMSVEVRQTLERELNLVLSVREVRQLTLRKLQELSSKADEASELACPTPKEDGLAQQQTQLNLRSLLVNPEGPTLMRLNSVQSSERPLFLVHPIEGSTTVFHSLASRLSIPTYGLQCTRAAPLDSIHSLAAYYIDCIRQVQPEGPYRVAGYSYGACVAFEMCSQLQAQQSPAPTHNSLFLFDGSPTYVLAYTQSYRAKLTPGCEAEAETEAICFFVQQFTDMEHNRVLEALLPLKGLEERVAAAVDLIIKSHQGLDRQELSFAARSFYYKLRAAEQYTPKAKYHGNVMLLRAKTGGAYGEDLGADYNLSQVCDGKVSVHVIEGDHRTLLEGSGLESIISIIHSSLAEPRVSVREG
The subject of data set [7] is MDA-MB-231. The data set can be described thus: Inhibition of DNA repair activity in human MDA-MB-231 cells assessed as inhibition of NHEJ activity measured every 12 hrs for 72 hrs by luciferase based host cell reactivation assay. The format is functional.
The target of data set [8] is T1, Fatty acid synthase. The data set can be described thus: Inhibition of FASN in human MDA-MB-231 cells overexpressing FASN assessed as decrease in endogenous FFA level at IC50 concentration incubated for 72 hrs. The class given is cell-based.
Target sequence in this assay (P49327 whole entry, looked up): as the sequence (P49327 whole entry) above
Data set [9] concerns MDA-MB-231. The data set can be described thus: Induction of DNA damage in human MDA-MB-231 cells assessed as inhibition of PARP-1 expression incubated for 72 hrs by Western blot analysis. The format is functional, cell-based. The settings on record: dose 2.5-10 µM, DDE = dose-dependent effect.
Data set [10] is described as follows: Induction of DNA damage in human KTB39 cells assessed as increase in gamma-H2AX level at IC50 concentration by Western blot analysis. The format is toxicity, cell-based.
The subject of data set [11] is MDA-MB-231. The data set can be described thus: Induction of DNA damage in human MDA-MB-231 cells nucleus assessed as increase in gamma-H2AX punctate staining at 10 uM by DAPI staining based confocal microscopic imaging analysis. The format is functional, cell-based.
Data set [12] can be described thus: Induction of DNA damage in human KTB22 cells assessed as increase in gamma-H2AX level at IC50 concentration by Western blot analysis. The format is toxicity, cell-based.
Data set [13] deals with MDA-MB-468. The data set can be described thus: Induction of DNA damage in human MDA-MB-468 cells assessed as decrease in PARP-1 mRNA level at 2.5 to 10 uM incubated for 72 hrs by RT-PCR analysis. The format is functional, cell-based. The settings on record: dose 2.5-10 µM.
The subject of data set [14] is MDA-MB-468. Description: Induction of DNA damage in human MDA-MB-468 cells assessed as increase in gamma-H2AX level measured after 72 hrs by Western blot analysis. The note with it: dose 2.5-10 µM, DDE = dose-dependent effect. The class given is functional, cell-based.
Data set [15] deals with MDA-MB-231. Description: Induction of DNA damage in human MDA-MB-231 cells assessed as decrease in PARP-1 mRNA level at 2.5 to 10 uM incubated for 72 hrs by RT-PCR analysis. The class given is functional, cell-based. The note with it: dose 2.5-10 µM.
Data set [16] has as its system MDA-MB-231. Description: Induction of ROS production in human MDA-MB-231 cells measured after 2 hrs by fluorescence based assay. The class given is functional, cell-based.
Data set [17] deals with MDA-MB-468. The data set can be described thus: Induction of ROS production in human MDA-MB-468 cells measured after 2 hrs by fluorescence based assay. The format is functional, cell-based.
Data set [18] has as its system MDA-MB-231. Description: Induction of apoptosis in human MDA-MB-231 cells assessed as increase in cleaved PARP1 level incubated for 72 hrs by Western blot analysis. The class given is functional, cell-based. The note with it: dose 2.5-10 µM, DDE = dose-dependent effect.
For data set [19], the system named is MDA-MB-468. The data set can be described thus: Induction of apoptosis in human MDA-MB-468 cells at 20 uM incubated for 72 hrs by Annexin-V/PI staining based flow cytometric analysis. The format is functional, cell-based. On the technique in general: Flow cytometry measures light scatter and fluorescence of single cells or particles in a stream.
In data set [20] the test system is Mus musculus. Description: In vivo inhibition of […] in NSG mouse xenografted with human MDA-MB-231 cells assessed as reduction of PARP1 level in tumor at 100 mg/kg, ip administered once daily for 22 days by Western blot analysis. The class given is functional, organism-based. The note with it: time 22.0 day. Background: Xenograft models place foreign cells or tissue in a host animal.

The next data set relates to HCC1937. The data set can be described thus: Antiproliferative activity against human HCC1937 cells assessed as reduction in cell survival incubated for 72 hrs by methylene blue cell survival assay. The class given is functional, cell-based.
In data set [21] the test system is Mus musculus. The data set can be described thus: In vivo inhibition of […] in NSG mouse xenografted with human MDA-MB-231 cells assessed as increase in gamma-H2AX level in tumor at 100 mg/kg, ip administered once daily for 22 days by immunohistochemical analysis. The format is functional, organism-based. The note with it: time 22.0 day.
The subject of another data set is MDA-MB-436. The data set can be described thus: Antiproliferative activity against human MDA-MB-436 cells assessed as reduction in cell survival incubated for 72 hrs by methylene blue cell survival assay. The format is functional, cell-based.
In data set [22] the test system is MDA-MB-231. Description: Antitumor activity against human MDA-MB-231 cells xenografted in NSG mouse assessed as reduction in tumor wet weight at 100 mg/kg, ip administered once daily for 22 days. The class given is functional, organism-based. The settings on record: time 22.0 day.
In data set [23] the test system is Mus musculus. The data set can be described thus: In vivo inhibition of […] in NSG mouse xenografted with human MDA-MB-231 cells assessed as reduction of FASN level in tumor at 100 mg/kg, ip administered once daily for 22 days by Western blot analysis. The note with it: time 22.0 day. The class given is functional, organism-based.
For data set [24], the system named is MDA-MB-468. The data set can be described thus: Induction of apoptosis in human MDA-MB-468 cells assessed as increase in cleaved caspase 3 level incubated for 72 hrs by Western blot analysis. The format is functional, cell-based. The settings on record: dose 2.5-10 µM, DDE = dose-dependent effect.
The test system of data set [25] is MDA-MB-468. The data set can be described thus: Induction of apoptosis in human MDA-MB-468 cells assessed as increase in cleaved PARP1 level incubated for 72 hrs by Western blot analysis. The class given is functional, cell-based. The note with it: dose 2.5-10 µM, DDE = dose-dependent effect.
In data set [26] the test system is MDA-MB-231. The data set can be described thus: Induction of apoptosis in human MDA-MB-231 cells at 10 uM incubated for 72 hrs by Annexin-V/PI staining based flow cytometric analysis. The class given is functional, cell-based.
A short description of data set [27]: Toxicity in NSG mouse xenografted with human MDA-MB-231 cells assessed as effect on body weight at 100 mg/kg, ip administered once daily for 22 days. The format is organism-based. The settings on record: in vivo, 528 h, time 22 day.
Data set [28] concerns MDA-MB-231. Description: Antitumor activity against human MDA-MB-231 cells xenografted in NSG mouse assessed as reduction in tumor growth at 100 mg/kg, ip administered once daily for 22 days. The note with it: time 22.0 day. The format is functional, organism-based.
Data set [29] relates to MDA-MB-468. Description: Antiproliferative activity against human MDA-MB-468 cells assessed as reduction in cell survival incubated for 72 hrs by methylene blue cell survival assay. The format is functional, cell-based.
Data set [30] has as its system Mus musculus. Description: In vivo inhibition of […] in NSG mouse xenografted with human MDA-MB-231 cells assessed as reduction of PARP1 level in tumor at 100 mg/kg, ip administered once daily for 22 days by immunohistochemical analysis. The format is functional, organism-based. The note with it: time 22.0 day.
For data set [31], the system named is MDA-MB-231. The data set can be described thus: Induction of apoptosis in human MDA-MB-231 cells assessed as increase in cleaved caspase 3 level incubated for 72 hrs by Western blot analysis. The format is functional, cell-based. The note with it: dose 2.5-10 µM, DDE = dose-dependent effect.
The test system of data set [32] is Mus musculus. Description: In vivo inhibition of […] in NSG mouse xenografted with human MDA-MB-231 cells assessed as reduction of FASN level in tumor at 100 mg/kg, ip administered once daily for 22 days by immunohistochemical analysis. The note with it: time 22.0 day. The class given is functional, organism-based.
Data set [33] relates to MDA-MB-231. Description: Effect on cell cycle distribution in human MDA-MB-231 cells assessed as accumulation of cells in sub-G1 phase at 10 uM incubated for 72 hrs by PI staining based flow cytometric analysis. The format is functional.
Data set [34] relates to Mus musculus. Description: In vivo inhibition of […] in NSG mouse xenografted with human MDA-MB-231 cells assessed as increase in gamma-H2AX level in tumor at 100 mg/kg, ip administered once daily for 22 days by Western blot analysis. The note with it: time 22.0 day. The format is functional, organism-based.
The subject of data set [35] is MDA-MB-231. Description: Antiproliferative activity against human MDA-MB-231 cells assessed as reduction in cell survival incubated for 72 hrs by methylene blue cell survival assay. The format is functional, cell-based.

Broadly, the Ki is a measure of affinity in units of concentration, obtained from inhibition or displacement. For `Cc1c(OCC(F)(F)F)ccnc1C[S+]([O-])c1nc2ccccc2[nH]1` (stereo unspecified) [LANSOPRAZOLE], the Activity entry is “Dde” in the data set with MDA-MB-231 [1]; “Dde” in the data set on MDA-MB-468 [4]; “Toxic” in data set [5]; “Dde” in the data set with MDA-MB-231 [9]; “Toxic” in data set [10]; “Toxic” in data set [12]. In the data set on MDA-MB-468 [14], the Activity result is “Dde”. In addition, the inhibition entry in the data set on MDA-MB-468 [2], in the data set with MDA-MB-231 [7] and on Fatty acid synthase [8] was “Active” each time. The outcome in the data set on MDA-MB-468 [3], in the data set on MDA-MB-231 [11], with MDA-MB-468 [13] and in the data set on MDA-MB-231 [15] was Active. Besides, the Ki at Fatty acid synthase [6] turned out to be 1700 nM.
Turning to `CC1=CC(=O)c2ccccc2C1=O`, the result in the data set on MDA-MB-231 [16] and with MDA-MB-468 [17] was Active.
Consider `Cc1c(OCC(F)(F)F)ccnc1CSc1nc2ccc(O)cc2[nH]1`, for which the Activity entry with MDA-MB-231 [1] is “Dde”; in the data set with MDA-MB-231 [18] it was “Dde”; in the data set with MDA-MB-468 [4], “Dde”; in data set [5] it was “Toxic”; with MDA-MB-468 [24], “Dde”; in the data set with MDA-MB-468 [25], “Dde”. The Activity result was “Dde” with MDA-MB-231 [9]; “Non-Toxic” in data set [27]; “Toxic” in data set [10]; “Dde” with MDA-MB-231 [31]; “Toxic” in data set [12]; “Dde” in the data set with MDA-MB-468 [14]. Besides, the inhibition entry in the data set with MDA-MB-468 [2], in the data set with Mus musculus [20], in the data set on Mus musculus [21], in the data set with Mus musculus [23], in the data set on MDA-MB-231 [7] and on Fatty acid synthase [8] was “Active” throughout. Also, the inhibition entry in the data set on Mus musculus [30], with Mus musculus [32] and in the data set on Mus musculus [34] was “Active” in each case. Moreover, the result in the data set with MDA-MB-468 [19], with MDA-MB-468 [3], with HCC1937, in the data set with MDA-MB-436, in the data set on MDA-MB-231 [22] and in the data set with MDA-MB-231 [26] was Active. Besides, the outcome with MDA-MB-231 [28], in the data set on MDA-MB-468 [29], in the data set on MDA-MB-231 [11], in the data set on MDA-MB-468 [13], in the data set with MDA-MB-231 [33] and with MDA-MB-231 [15] was Active. Besides, the result in the data set with MDA-MB-231 [35] was Active.
